By IC50 is commonly meant the concentration that gives 50% inhibition. A higher IC50 goes with weaker potency.

The experiment deals with human chemokine receptor CXCR7 (Homo sapiens (Human), UniProt P25106). Kind of experiment: Tango CXCR7-bla U2OS beta-arrestin recruitment assay (beta-lactamase reporter, FRET), antagonism of CXCL12/SDF1-α.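 Also: compounds preincubated 15 min before CXCL12 addition, then 22 h at 37 °C, FRET emission ratio read with CCF4-AM substrate after 2 h.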 In kind it is cell-based. The note with it: antagonistic effect on CXCR7; Tango CXCR7-bla U2OS cells, CXCL12/SDF1-α at its EC80.
Chain of human chemokine receptor CXCR7 (P25106 whole entry): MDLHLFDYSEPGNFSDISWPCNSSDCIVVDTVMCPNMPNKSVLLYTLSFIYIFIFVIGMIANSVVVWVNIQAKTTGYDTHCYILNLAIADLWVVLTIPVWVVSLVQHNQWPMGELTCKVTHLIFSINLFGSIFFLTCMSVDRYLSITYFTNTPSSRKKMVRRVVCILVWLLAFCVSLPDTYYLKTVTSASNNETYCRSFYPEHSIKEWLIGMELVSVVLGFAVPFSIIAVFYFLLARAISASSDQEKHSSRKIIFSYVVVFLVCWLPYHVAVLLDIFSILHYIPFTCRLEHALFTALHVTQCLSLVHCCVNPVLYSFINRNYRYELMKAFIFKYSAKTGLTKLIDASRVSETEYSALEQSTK
Take `O=C(N[C@@H]1CCN(CC2CC2)C[C@H]1C(=O)NC1(c2ncccn2)CC1)c1cc(-c2ccc(F)cn2)on1` (racemic) [Example 1.196, rac-(3R*,4R*)-1-Cyclopropylmethyl-4-{[5-(5-fluoro-pyridin-2-yl)-isoxazole-3-carbonyl]-amino}-piperidine-3-carboxylic acid (1-pyrimidin-2-yl-cyclopropyl)-amide]: the half-maximal inhibitory concentration (IC50) turned out to be 575 nM. This lies in the sub-micromolar range.

`CN(C)C(=O)[C@@H]1CN(CC2(C)CC2)CC[C@H]1NC(=O)c1cc(-c2ccc(F)cc2F)on1` [Example 2.034] yielded an IC50 of 87 nM.

Consider `CCOC(=O)[C@H](NC(=O)[C@H]1CN(CC2CC2)CCC1NC(=O)c1cc(-c2ccc(F)cc2F)on1)c1ccccc1` (stereo partly shown) [Example 4.073], for which 173 nM corresponded to half-maximal inhibition (IC50). This IC50 is about 2-fold higher than that of the compound before.

For `C[C@@H](NC(=O)[C@@H]1CN(C2CCCCC2)CC[C@H]1NC(=O)c1cc(-c2ccc(F)cc2F)on1)c1ncccc1F` (relative stereo) [Example 1.092, (3R*,4R*)-1-Cyclohexyl-4-{[5-(2,4-difluoro-phenyl)-isoxazole-3-carbonyl]-amino}-piperidine-3-carboxylic acid [(R)-1-(3-fluoro-pyridin-2-yl)-ethyl]-amide], the half-maximal inhibitory concentration (IC50) came to 1 nM.

The record behind these values is US11306078B2, “Piperidine CXCR7 receptor modulators” (IDORSIA PHARMACEUTICALS LTD., priority 2016, dated 2022).
